This is an account of results in US9913858B2, “Prevention and treatment of toxicosis” (priority 2013, dated 2018).

The structures appear in SMILES notation.

One data set concerns sheep. The conditions noted are these: 120 mg/kg bromide. On the procedure:
KBr solution was administered via an orogastric tube, then flushed with 500 mL water. Blood samples were collected at 0, 1, 2, 3, 4, 6, 8, 10, 12, 24 h, then at 12 h intervals to 240 h, then at 24 h intervals to 336 h. A final sample was taken at 504 h. When collecting blood samples at 1 h through to 10 h the rumen was auscultated, over the caudo-dorsal blind sack, to determine if the high salt load affected rumen motility.

The test system of data set [1] is lolitrem B toxicosis (Rye Grass Staggers). Put plainly: Clinical and neurological signs in sheep fed lolitrem B-containing toxic feed with or without potassium bromide. Type of data set: in vivo. The conditions noted are these: sheep, Group 5: prophylactic oral KBr only. How it is done: Animals were exposed to a controlled diet containing 0.16 mg/kg body weight (BW) lolitrem B toxin rising to 0.27 mg/kg BW after 21 days exposure to toxic feed. Toxin was delivered as perennial rye grass seed (GA66 AR98, Grasslanz Technology Ltd, NZ) containing very high levels of lolitrem B toxin (11 ppm DM) as a component of the animal's feed intake.
On entry to the trial, all animals receiving toxic feed were exposed to a diet containing experimental ryegrass seed with a final lolitrem B concentration of 0.08 mg/kg LW, lucerne chaff and molasses 30% w/v for 3 days. After this induction period, the toxin content of the feed was increased to 0.16 mg/kg LW for the duration of the trial. […] Ryegrass seed constituted up to 65% of available Feed on Offer (FOO) by dry weight contributing a metabolisable energy of 12.1 Mj/kg DM.
At entry to the trial, all animals were subjected to a full clinical examination. Live weight was recorded. Venous blood and urine samples were collected for laboratory. Animals were also subjected to gait analysis, neurological examination including proprioceptive testing, cranial nerve examination and papillary light and menace reflexes. Electromyography (EMG) of tricep and neck muscles was performed. Gait analysis (see below) was repeated at three day intervals until onset of significant clinical signs and/or gait abnormality at which point animals were subjected to gait analysis daily. Gait analysis was recorded on video each occasion.
General clinical signs were also noted on a daily basis; these included observations of nervousness or agitation, changes in normal placement of body, limb or head position changes in faecal consistency, feeding behaviour or water consumption, observeable tremor of the body or head, eye position (strabismus) and movement (nystagmus), locomotory disturbances, or any other clinical changes worthy of note. Feed and water intake was monitored daily for the duration of the trial. Heart rate, respiration rate at rest and rectal temperature were also monitored daily.
Prophylactic sheep received a split loading dose of 300 mg/kg on day 1, 120 mg/kg (100 mg LD+20 mg/kg daily maintenance dose) on day 2, 120 mg/kg on day 3 and 20 mg/kg daily for the duration of the trial. An acute treatment dose of 300 mg/kg LW was used for the trial. Both prophylactic and acute treatment doses were envisaged to give serum concentrations of 750 to 1000 μg/ml for the duration of the initial weeks of the trial.
Group 1—Negative Control: lucerne chaff only;
Group 2—Positive Control: lucerne chaff containing 0.16 mg/kg LW lolitrem B;
Prophylactic treatment sheep (Groups 4 & 5) received a split loading dose of 300 mg/kg on day 1 of the trial, 120 mg/kg (100 mg LD 20 mg/kg daily maintenance dose) on day 2, 120 mg/kg on day 3 and 20 mg/kg daily thereafter. Acute therapy sheep were dosed with a single dose of 300 mg/kg on day of falling.
End of the trial was defined for Groups 2 and 3 as date of falling. Group 1 animals entered the end of trial protocol with their Group 2 counterparts. Group 4 and 5 animals entered the end of trial protocol after 22 days. This end of trial protocol consisted of the following analysis: • On Day 1: animals were subjected to a full clinical examination, gait analysis, urine and blood collection, neurological examination and EMG. • On Day 2: further gait analysis was recorded, • On Day 3: animals were again subjected to full clinical examination, gait analysis, urine and blood collection, neurological examination and EMG as well as live weight recorded prior to necropsy.

The test system is the same in data set [2]. Kind of data set: Gait analysis and time to falling. Type of data set: in vivo, sheep. How it is done: Gait analysis was performed on entry to the trial and at designated time points throughout the trial as described above. To achieve this, animals were moved from their individual pens to an external yard in their cohort groups (five animals, one from each treatment). Animals were then encouraged to move at a run, initially in a group and then individually, for a minimum of three minutes per animal whilst their movement was captured on video and gait observations recorded.
Once all animals had been analysed the whole cohort was returned to their individual pens. Gait abnormalities such as stumbling, falling or disorientation were noted, including observation of Type 1 or Type 2 gait changes as described in Combs et, al., (2014). Type I movement disorder is defined as an impaired alternating movement (dysdiadochokinesia), bunny-hopping gait and failure to maintain an appropriate direction. Type 2 movement disorder is defined by increasing rigidity of limbs on forced movement resulting finally in tonic fore and hind limb extension with the animal collapsing into sternal or lateral recumbency (Combs, Rendell et at 2014). Scores between those denoted above were considered as a gradation between the stated clinical observations. Analysis of gait was performed using the following scale in Table 2 and a composite score noted for each animal for each day during the end of trial protocol. A total score out of 30 was determined for each animal. The higher the score the greater the locomotory disturbance. Time to falling was determined post trial by analysis of video material,
Animals that met the entry criteria (severe Type 2 gait abnormality and falling) were submitted to the end-of-trial protocol. […] Animals were subjected to the following tests on days 1 and 3: gait analysis, full neurological examination, venous blood and urine sampling and EMG. Only gait analysis was performed on day 2.

Data set [3] in a line: Serum and cerebrospinal fluid bromide concentrations in the sheep trial. In kind it is in vivo. The conditions noted are these: sheep, sheep. On the procedure: Venous blood samples collected for biochemical analysis and haematocrit (PCV), and urine for USG, at three specific time points during the experiment for all animals: 1) on entry to the trial; 2) on date of entry to the end of trial protocol and, 3) on day of necropsy.
A full clinical examination was performed prior to euthanasia. At euthanasia, 100 I.U. heparin (Provet Riverina Pty Ltd) was injected into the jugular vein, followed shortly by Lethabarb (20 mL/40 kg LW). Immediately after euthanasia, the ventral articulation of C1 was exposed and cerebrospinal fluid (CSF) collected using a 23 g needle. The head was then removed and subjected to perfusion fixation. Briefly, the carotid arteries were exposed and a small catheter inserted and ligated to secure the perfusion lines. Two liters of 0.1% phosphate buffered saline (PBS) containing 3000 I.U of heparin/L was then slowly perfused via the ligated vessels at a pressure of 90 mm Hg using a Microgon peristaltic Pump (Microgon, Laguna Hills, Calif.). Once complete this was replaced with 4% paraformaldehyde (Sigma-Alrich) in 0.1% PBS and a further two liters allowed to perfuse slowly through the tissues of the head. Once complete, catheters were removed and the whole head placed at 4° C. overnight to complete fixation. Twenty-four hours post perfusion fixation the brain was removed from the skull and placed in 10% formal saline for storage until dissection for processing to wax sections.
Absorbance was measured with a spectrophotometer at 440 nm. […] The lower limit of quantification (LOQ) was 25 μg/mL.

As for `Br` [bromide], the adverse reactions result with sheep (either treatment group (IV, PO)) is “No adverse reactions were noted”. Also, the “tranquilising effect, subjective observation” value with sheep (IV group) is on record as “mild tranquilising effect”. In addition, the neurological effects result with sheep (PO group) is “no discernable neurological effects”. In the data set on sheep (PO group), the rumen motility entry is listed as “no observed alteration”. The “animals showing evidence of mild anxiolysis” value in data set [1] amounted to 519. Also, the “Altered stance, number of animals affected” value in data set [1] (no toxic feed, 22 days) is 4. For the same compound, the “Fine tremor, number of animals affected” value in data set [1] (no toxic feed, 22 days) was “one”. For the same compound, the time to falling in data set [2] (printed as Group 2 Day 2, 24 hours after single oral dose of bromide 300 mg/kg LW) was found to be 145.66 ± 22.07 s; in data set [2] (printed as Group 2 Day 3, 48 hours after single oral dose of bromide 300 mg/kg LW), 124.75 ± 22.06 s; in data set [2] (printed as Group 2 day 1, intoxicated sheep before single oral dose of bromide 300 mg/kg LW), 52.44 s. The Kp at 48 hours in data set [3] (cerebrospinal fluid and serum, oral, 300 mg/kg, mean ratio of serum bromide:CSF bromide, Group 3, acute bromide treatment plus lolitrem B, 48 hours) amounted to 0.81. Also, the Kp at 22 days in data set [3] (cerebrospinal fluid and serum, oral, mean ratio of serum bromide:CSF bromide, Group 4, bromide prophylactic treatment plus lolitrem B) worked out at 0.91; in data set [3] (cerebrospinal fluid and serum, oral, mean ratio of serum bromide:CSF bromide, Group 5, bromide prophylactic controls), 0.74. The “serum bromide, factor Group 4 over Group 5” value in data set [3] (prophylactic bromide plus lolitrem B versus prophylactic bromide alone, 22 days) is given as 1.27.
